Several values for one entry are separate records, joined by “and”; a condition that tells them apart may be missing. Identical values can stand only once. Marks after values point to notes of the source that are not given here.
Experiment: Plasma concentration after intravaginal administration of vaginal ring
Format: in vivo, Cynomolgus monkeys
Settings: for Plasma concentration of Pritelivir free base: individual animals; for Plasma concentration of Pritelivir free base, Mean: group mean
Method: The study was performed in four single dose phases with 28-day sampling period after Phases 1 and 2 (7-day washout period between doses). Vaginal rings were investigated for Pritelivir free base and Pritelivir mesylate salt at two dose levels per formulation. The test items were applied as vaginal ring in Phases 1 and 2 to female monkeys. The study design is below in the Table 3.
Venous blood samples were taken from all animals at the following times in relation to dosing.
• Blood sample site Femoral site • Blood volume 1.0 mL • Anticoagulant For phase 1 samples, Day 1-3 only, blood was sampled into standard HLS vials containing lithium heparin and 20 μL aqueous phosphoric acid (3.5 molar). Thereafter, blood was collected into tubes containing lithium heparin only. Plasma was obtained from all samples by centrifugation. Samples were appropriately labeled and stored deep frozen (−20° C. or below) until analysis • Total no. of blood samples 350 Vaginal Fluid Sampling
After suitable dilution, plasma and vaginal samples were analyzed on UPLC system Waters Acquity UPLC-HSS PFP column with 1.8 μm particles (100×2.1 mm) by gradient elution using 0.1% formic acid and methanol containing 0.1% formic acid. For detection, a time-of-flight mass spectrometer (Xevo GS-2 QTOF, Waters) was used operating in positive ionization mode (MSe analysis). The samples were analyzed for their content of Pritelivir free base.
The study was designed to obtain information on the time-course of unchanged test compound concentrations in plasma and vaginal fluid/tissue, following single intravaginal administration of rings to female Cynomolgus monkeys. Objectives of this study were to determine the safety and tolerance of Pritelivir loaded rings, as well as systemic and local exposure (plasma, vaginal fluid and vaginal and vulval tissue, respectively). Local exposures were compared with in vitro efficacy data of Pritelivir to get an idea on initial pharmacokinetic/pharmacodynamic (PK/PD) parameters for vaginal rings, i.e. to assess the potential ability of a Pritelivir loaded ring to suppress viral replication in the target tissue. Table 9 gives an overview on the EC50 values of Pritelivir on HSV-1 and HSV-2 Data source: Field, H. J., et al., Baseline sensitivity of HSV-1 and HSV-2 clinical isolates and defined acyclovir-resistant strains to the helicase-primase inhibitor pritelivir. Antiviral Res, 2013. 100(2): p. 297-9. EC50=50% effective concentration.

[1] = ring 40 mg free base, Phase 1 Group 1, 2 d
[2] = ring 40 mg free base, Phase 1 Group 1, 3 d
[3] = ring 240 mg free base, Phase 2 Group 1, 2 d
[4] = ring 240 mg free base, Phase 2 Group 1, 3 d
[5] = ring 240 mg free base, Phase 2 Group 1, 4 d
[6] = ring 240 mg free base, Phase 2 Group 1, 7 d
[7] = ring 240 mg free base, Phase 2 Group 1, 10 d
[8] = ring 240 mg free base, Phase 2 Group 1, 14 d
[9] = ring 240 mg free base, Phase 2 Group 1, 17 d
[10] = ring 240 mg free base, Phase 2 Group 1, 21 d
[11] = ring 240 mg free base, Phase 2 Group 1, 24 d
[12] = ring 240 mg free base, Phase 2 Group 1, 28 d

**Q.** Which results are given for `Cc1nc(N(C)C(=O)Cc2ccc(-c3ccccn3)cc2)sc1S(N)(=O)=O` [Pritelivir free base]?
**A.** Plasma concentration of Pritelivir free base (ring 40 mg free base, Phase 1 Group 1, 0.0833 d): 6.03 ^ μg/L and 4.53 ^ μg/L; Plasma concentration of Pritelivir free base (ring 40 mg free base, Phase 1 Group 1, 0.167 d): 6.90 ^ μg/L and 7.56 ^ μg/L; Plasma concentration of Pritelivir free base (ring 40 mg free base, Phase 1 Group 1, 0.333 d): 8.54 ^ μg/L and 10.9 ^ μg/L and 3.97 ^ μg/L; Plasma concentration of Pritelivir free base, Mean [1]: 10.2 ^ μg/L; Plasma concentration of Pritelivir free base [1]: 4.07 ^ μg/L and 11.6 ^ μg/L and 18.3 ^ μg/L and 6.75 ^ μg/L; Plasma concentration of Pritelivir free base, Mean [2]: 9.20 ^ μg/L; Plasma concentration of Pritelivir free base [2]: 4.80 ^ μg/L and 7.29 ^ μg/L and 18.4 ^ μg/L and 6.30 ^ μg/L; Plasma concentration of Pritelivir free base (ring 40 mg free base, Phase 1 Group 1, 4 d): 3.41 ^a μg/L and 5.30 ^ μg/L and 3.51 ^a μg/L; Plasma concentration of Pritelivir free base (ring 40 mg free base, Phase 1 Group 1, 7 d): 3.22 ^a μg/L and 3.86 ^a μg/L and 4.00 ^ μg/L; Plasma concentration of Pritelivir free base (ring 40 mg free base, Phase 1 Group 1, 10 d): 3.02 ^a μg/L and 3.74 ^a μg/L and 2.75 ^a μg/L; Plasma concentration of Pritelivir free base (ring 40 mg free base, Phase 1 Group 1, 14 d): 2.83 ^a μg/L and 4.32 ^ μg/L and 3.29 ^a μg/L; Plasma concentration of Pritelivir free base (ring 40 mg free base, Phase 1 Group 1, 17 d): 4.08 ^ μg/L and 3.48 ^a μg/L and 2.59 ^a μg/L; Plasma concentration of Pritelivir free base (ring 40 mg free base, Phase 1 Group 1, 21 d): 3.08 ^a μg/L and 2.67 ^a μg/L; Plasma concentration of Pritelivir free base (ring 40 mg free base, Phase 1 Group 1, 24 d): 2.77 ^a μg/L; Plasma concentration of Pritelivir free base (ring 40 mg free base, Phase 1 Group 1, 28 d): 2.76 ^a μg/L and 3.00 ^a μg/L; Plasma concentration of Pritelivir free base (ring 240 mg free base, Phase 2 Group 1, 0.0417 d): 2.96 ^a μg/L; Plasma concentration of Pritelivir free base (ring 240 mg free base, Phase 2 Group 1, 0.0833 d): 2.95 ^a μg/L; Plasma concentration of Pritelivir free base (ring 240 mg free base, Phase 2 Group 1, 0.167 d): 2.82 ^a μg/L and 8.45 μg/L and 4.56 μg/L and 2.49 ^a μg/L; Plasma concentration of Pritelivir free base (ring 240 mg free base, Phase 2 Group 1, 0.333 d): 3.78 ^a μg/L and 10.1 μg/L and 5.80 μg/L and 3.79 ^a μg/L; Plasma concentration of Pritelivir free base, Mean [3]: 14.3 ^ μg/L; Plasma concentration of Pritelivir free base [3]: 10.1 ^ μg/L and 23.0 μg/L and 9.89 μg/L; Plasma concentration of Pritelivir free base, Mean [4]: 17.0 ^ μg/L; Plasma concentration of Pritelivir free base [4]: 15.6 ^ μg/L and 15.2 μg/L and 10.2 ^ μg/L; Plasma concentration of Pritelivir free base, Mean [5]: 17.0 ^ μg/L; Plasma concentration of Pritelivir free base [5]: 13.9 ^ μg/L and 16.1 μg/L and 12.2 ^ μg/L; Plasma concentration of Pritelivir free base, Mean [6]: 13.1 ^ μg/L; Plasma concentration of Pritelivir free base [6]: 11.8 ^ μg/L and 14.2 μg/L and 10.3 ^ μg/L; Plasma concentration of Pritelivir free base, Mean [7]: 8.80 ^ μg/L; Plasma concentration of Pritelivir free base [7]: 8.27 ^ μg/L and 9.04 μg/L and 8.43 ^ μg/L; Plasma concentration of Pritelivir free base, Mean [8]: 8.70 ^ μg/L; Plasma concentration of Pritelivir free base [8]: 6.33 ^ μg/L and 8.33 μg/L and 10.6 ^ μg/L; Plasma concentration of Pritelivir free base, Mean [9]: 8.67 ^ μg/L; Plasma concentration of Pritelivir free base [9]: 5.58 ^ μg/L and 9.84 μg/L and 8.41 ^ μg/L; Plasma concentration of Pritelivir free base, Mean [10]: 6.97 ^ μg/L; Plasma concentration of Pritelivir free base [10]: 6.02 ^ μg/L and 8.37 μg/L and 5.71 ^ μg/L; Plasma concentration of Pritelivir free base, Mean [11]: 8.97 ^ μg/L; Plasma concentration of Pritelivir free base [11]: 4.96 ^ μg/L and 11.3 μg/L and 9.86 ^ μg/L; Plasma concentration of Pritelivir free base, Mean [12]: 8.79 ^ μg/L; Plasma concentration of Pritelivir free base [12]: 5.57 ^ μg/L and 9.32 μg/L and 7.55 ^ μg/L

Source: patent US11213516B2, “Intravaginally applicable devices comprising antiviral compounds” (AICURIS ANTI-INFECTIVE CURES GMBH, priority 2017, dated 2022)
